Laboratory results reported in patent publication US20140363530A1, “COMPOSITION COMPRISING THE EXTRACT OF PINE TREE LEAF OR THE COMPOUNDS ISOLATED THEREFROM FOR THE PREVENTION AND TREATMENT OF CANCER DISEASE BY INHIBITING HPV VIRUS AND THE USES THEREBY” (priority 2012, published 2014).
In brackets after ≈: the same amount, converted by molar mass. Like-named read-outs stand apart in the source and are kept apart here.

How the values were obtained:
[1] = tested on: HPV16 PVs; assay: Virus inhibition test (in vitro), SEAP activity of 293TT cells infected with HPV pseudovirion; format: cell-based; conditions: Human papillomavirus 16, read-out: inhibitory activity from HPV16 PVs
Experimental: Prior to in vitro antiviral assay, 5×10^3 of 293TT cell was seeded on 96-well plate and incubated at 37° C. for 16 hours in 5% CO2 atmosphere. The culture media was removed and each extract was diluted to the concentration of 100 μg/ml or 50 μg/ml to distribute into each cell at the dose of 100 μl/cell. After treating with the extract for 16 hours, the culture media was removed and the cell was washed with PBS twice. The cell was infected by 106RLU/ml of HPV PVs at the dose of 100 μl/cell and incubated for 48 hours at 37° C. in 5% CO2 atmosphere. To determine the viral activity, the supernatant of the cell culture was used for determine the activity of secreted alkaline phosphatase (SEAP) using by Great EscAPE™ SEAP Chemiluminescence Kit (631738, Clontech, CA, USA). To determine the SEAP activity, relative light units (RLU) value was obtained using by Luminescence coulter (Micro beta triLux 1450, PerkinElmer, CT, USA) and the RLU values of the cell treated with the extract and untreated with the extract, were compared with each other. The decrease of SEAP activity was regarded as the inhibition effect against HPV PVs.
To determine the inhibitory effect on luciferase-comprising HPV virus contagion of the test samples prepared in Examples, following test was performed according to the method disclosed in the literature (Shaneyfelt et al., Virology Journal, 3:68, 2006, 1-11; Roden et al., J. Virol., 70, 1996, 5875-5883; Unckell et al., J. Virol., 71, 1997, 2934-2939; Touze et al., Nucleic Acids Research, 26, 1998, 1317-1323; Selinka et al., J. Virol., 77, 2003, 12961-12967; Klasse et al., Journal of General Virology, 83, 2002, 2091-2108)
5×10^3293TT cell was seeded on 96-well plate and incubate for 16 hours. 50 μg of test sample was mixed with the culture media in the concentration of 100 ug/ml and incubated for 16 hours. The media was washed with 100 μl of PBS twice and the cell was infected with 10^6RLU/ml of HPV pseudovirion at the dose of 100 μl/cell to incubate at 37° C., for 48 hours in 5% CO2 atmosphere.
5× lysis buffer in Great EscAPE™ SEAP Chemiluminescence Kit (631738, Clontech, CA, USA) was made to 1× and both of 45 μl of 1× lysis buffer and 15 μl of cell culture medium were added to 96-well plate (3912, Costar, NY, USA). 60 μl of the substrate in Great EscAPE™ SEAP Chemiluminescence kit was added thereto and the relative light units (RLU) value was obtained using by Luminescence coulter (Micro beta triLux 1450, PerkinElmer, CT, USA). The RLU values of the cell treated with the extract and untreated with the extract, were compared with each other and the decrease of SEAP activity was regarded as the inhibition effect against HPV PVs.

[2] = tested on: A-549 (human adenocarcinoma of lung); assay: SRB cytotoxicity test, A-549; format: cell-based; conditions: for IC50: Homo sapiens, A549, Table 3, 48 hours, read-out: Cytotoxicity IC50, A-549
Experimental: (§1) To determine the cytotoxicity against human tumor cell line of the test samples prepared in Examples, following sulforhodamin B (SRB) bioassy test was performed according to the method disclosed in the literature (Skehan, P., et al., J. Natl. Cancer Inst., 82, 1990, 1107-1112).
(§2) Various human tumor cell lines, i.e., A-549 (human adenocarcinoma of lung, NCI), SK-OV-3 (human ovarian tumor, NCI), SK-MEL-2 (human malignant melanoma, NCI), HCT15 (human colon adenocarcinoma, NCI), MES-SA (human uterine carcinoma, NCI) and MES-SA/DX5 (multidrug resistant carcinoma subline of MES-SA, NCI) were used in the test.
(§3) The subcultured cell lines were detached from the surface of wall using by trypsin-EDTA solution and adjusted to various concentration of cell lines, i.e., 5×10^3 cells/well (A-549, HCT15), 1×10^4 cells/well (SK-MEL-2), 5×10^3 cells/well (SK-OV-3) in 96-well flat bottom microplate. The inoculated cell lines were incubated in CO2 incubator (MCO-20AIC, SANYO Electric Co., LTd.) to be attached on the bottom of incubator and the culture media was removed with aspirator. 6 logarithmic concentrations of the diluted test samples were added to each well containing cell line at 100 μl/well in a three fold dilution manner and the cell was incubated for 48 hours. The culture media in each well was removed and 100μ of 10% trichloroacetic acid was added thereto to be left alone at 4° C. for 1 hour and to fix the cells to the bottom of the plates. […] The cell plates were shaked with titer plate shaker (KOMA Orbital Shaker KE011, KOMABIOTech) for 10 mins to exude the staining solution and to determine the absorbance at 520 nm using by microplate spectrophotometer (Sunrise, TECAN).

[3] = tested on: SK-OV-3 (human ovarian tumor); assay: SRB cytotoxicity test, SK-OV-3; format: cell-based; conditions: for IC50: Homo sapiens, SK-OV-3, Table 3, 48 hours, read-out: Cytotoxicity IC50, SK-OV-3
Experimental: as §1, §2, §3

[4] = tested on: SK-MEL-2 (human malignant melanoma); assay: SRB cytotoxicity test, SK-MEL-2; format: cell-based; conditions: for IC50: Homo sapiens, SK-MEL-2, Table 3, 48 hours, read-out: Cytotoxicity IC50, SK-MEL-2
Experimental: as §1, §2, §3

[5] = tested on: HCT15 (human colon adenocarcinoma); assay: SRB cytotoxicity test, HCT15; format: cell-based; conditions: for IC50: Homo sapiens, HCT-15, 48 h, read-out: Cytotoxicity IC50, HCT15
Experimental: as §1, §2, §3

[6] = tested on: MES-SA (human uterine carcinoma); assay: SRB cytotoxicity test, MES-SA; format: cell-based; conditions: for IC50: Homo sapiens, MES-SA, 48 h, read-out: Cytotoxicity IC50, MES-SA
Experimental: as §1, §2, §3

[7] = tested on: MES-SA/DX5 (multidrug resistant carcinoma subline of MES-SA); assay: SRB cytotoxicity test, MES-SA/DX5; format: cell-based, human; conditions: for IC50: Homo sapiens, MES-SA/Dx5, 48 h
Experimental: as §1, §2, §3

[8] = tested on: HCT15/CL02; assay: SRB cytotoxicity test, HCT15/CL02; format: cell-based, human; conditions: Table 4, 48 hours; for IC50: Homo sapiens, HCT-15
Experimental: To determine the cytotoxicity against human tumor cell line of the test samples prepared in Examples, following sulforhodamin B (SRB) bioassy test was performed according to the method disclosed in the literature (Skehan, P., et al., J. Natl. […] The inoculated cell lines were incubated in CO2 incubator (MCO-20AIC, SANYO Electric Co., LTd.) to be attached on the bottom of incubator and the culture media was removed with aspirator. 6 logarithmic concentrations of the diluted test samples were added to each well containing cell line at 100 μl/well in a three fold dilution manner and the cell was incubated for 48 hours. […] The cell plates were shaked with titer plate shaker (KOMA Orbital Shaker KE011, KOMABIOTech) for 10 mins to exude the staining solution and to determine the absorbance at 520 nm using by microplate spectrophotometer (Sunrise, TECAN).

[9] = read-out: Cytotoxicity IC50, MES-SA/DX5

Molecule	inhibition at 50 µg/mL [1] [%]	IC50 [2] [µg/mL]	IC50 [3] [µg/mL]	IC50 [4] [µg/mL]	IC50 ([5]; Table 3, 48 hours) [µg/mL]	IC50 ([6]; Table 3, 48 hours) [µg/mL]	IC50 [7, 9] [µg/mL]	IC50 ([5]; Table 4, 48 hours) [µg/mL]	IC50 ([6]; Table 4, 48 hours) [µg/mL]	IC50 [8] [µg/mL]	also measured
C=C1CC[C@H]2O[C@]2(C)CC[C@@H]2[C@@H]1CC2(C)C [compound (l), caryophyllene oxide]	70 to 80	36.4 (≈ 165 µM)	23.7 (≈ 108 µM)	18.6 (≈ 84.6 µM)	26.8 (≈ 121 µM)	15.2 (≈ 69.2 µM)	17.7 (≈ 80.5 µM)				
C=C1CCC2[C@](C)(C(=O)O)CCC[C@]2(C)[C@H]1/C=C/C(C)=O (stereo partly drawn) [compound (d), 13-oxo-15,16-dinorlabda-8(17),11E-dien-19-oic acid]	70 to 80							> 30	> 30	27.6 (≈ 95.2 µM)	IC50 ([7]; read-out: Cytotoxicity IC50, MES-SA/DX5, Table 4, 48 hours): > 30 µg/mL
CC(C)(O)c1ccc2c(c1)C(=O)C[C@H]1[C@](C)(C(=O)O)CCC[C@]21C [compound (g), 7-oxo-15-hydroxydehydroabietic acid]	70 to 80						> 30	> 30	> 30	> 30	
C[C@@]1(C(=O)O)CCC[C@]2(C)c3ccc(O)cc3CCC12 (stereo partly drawn) [compound (e), 13-hydroxy-8,11,13-podocarpatrien-18-oic acid]	70 to 80						25.8 (≈ 94.2 µM)	> 30	> 30	26.4 (≈ 96.1 µM)	
C=C1CCC2[C@](C)(C(=O)O)CCC[C@]2(C)[C@H]1CC[C@H](C)CCO (stereo partly drawn) [compound (b), (13S)-15-hydroxylabd-8(17)-en-18-oic acid]	70 to 80						11.5 (≈ 35.7 µM)	20.2 (≈ 62.5 µM)	19.1 (≈ 59.1 µM)	12.8 (≈ 39.8 µM)	
C=C1CCC2C(C)(C(=O)O)CCCC2(C)C1CCC(C)CC(=O)O (stereo not drawn) [compound (c), ent-labd-8(17)-ene-15,18-dioic acid]											Cytotoxicity IC50, HCT15 [5]: >30.0 µg/mL; Cytotoxicity IC50, MES-SA [6]: >30.0 µg/mL; Cytotoxicity IC50, MES-SA/DX5 ([7]; Table 4, 48 hours): >30.0 µg/mL; Cytotoxicity IC50, HCT15/CL02 [8]: 21.47 µg/mL
9,14-dihydroxytotara-7-ene-8-oic acid [compound (a)]											Cytotoxicity IC50, A-549 [2]: 127.16 µg/mL; Cytotoxicity IC50, SK-OV-3 [3]: 120.05 µg/mL; Cytotoxicity IC50, SK-MEL-2 [4]: 99.45 µg/mL; Cytotoxicity IC50, HCT15 [5]: 117.31 µg/mL
C=C[C@]1(C)CCC2[C@@]3(C)CCC[C@@](C)(CO)C3CC[C@@]2(C)O1 (single isomer, unassigned; ent-18) [compound (h), ent-18-hydrorxy-13-epimanoyl oxide]	70 to 80	13.3 (≈ 43.5 µM)	12.7 (≈ 41.4 µM)	11.3 (≈ 36.7 µM)	10 (≈ 32.8 µM)	8.17 (≈ 26.7 µM)	9.54 (≈ 31.1 µM)				
CC(C)(O)c1ccc2c(c1)CC[C@H]1[C@](C)(C(=O)O)CCC[C@]21C [compound (k), 15-hydroxydehydroabietic acid]	70 to 80	109 (≈ 345 µM)	142 (≈ 448 µM)	88.8 (≈ 281 µM)	98.2 (≈ 310 µM)	90.7 (≈ 286 µM)	91.9 (≈ 290 µM)				
CC(C)c1ccc2c(c1)[C@H](O)CC1[C@](C)(C(=O)O)CCC[C@]21C (stereo partly drawn) [compound (f), 7α-hydroxycallitirisic acid]	70 to 80						27.4 (≈ 86.7 µM)	> 30	26.8 (≈ 84.7 µM)	> 30	
